For 19 compounds, IC50 results are on record in patent publication US20210122739A1, “NOVEL SULFONAMIDE CARBOXAMIDE COMPOUNDS” (Inflazome Limited, priority 2017, published 2021).

Some results are limits rather than exact numbers.

Test [1] addresses T1, NLRP3 (Homo sapiens, UniProt Q96P20). As to the kind of experiment: THP-1 cells pyroptosis assay. It is filed as cell-based. Further details: Seed THP-1 cells (25,000 cells/well) containing 1.0 μg/ml LPS; host or cells: THP-1 cells, LPS-primed, nigericin-stimulated. The note with it: 1.0 μg/ml LPS, nigericin 5 μM, resazurin readout. The text has this:
It is well established that the activation of NLRP3 leads to cell pyroptosis and this feature plays an important part in the manifestation of clinical disease (Yan-gang Liu et al., Cell Death & Disease, 2017, 8(2), e2579; Alexander Wree et al., Hepatology, 2014, 59(3), 898-910; Alex Baldwin et al., Journal of Medicinal Chemistry, 2016, 59(5), 1691-1710; Ema Ozaki et al., Journal of Inflammation Research, 2015, 8, 15-27; Zhen Xie & Gang Zhao, Neuroimmunology Neuroinflammation, 2014, 1(2), 60-65; Mattia Cocco et al., Journal of Medicinal Chemistry, 2014, 57(24), 10366-10382; T. Satoh et al., Cell Death & Disease, 2013, 4, e644). Therefore, it is anticipated that inhibitors of NLRP3 will block pyroptosis, as well as the release of pro-inflammatory cytokines (e.g. IL-1β) from the cell.
THP-1 cells (ATCC #TIB-202) were grown in RPMI containing L-glutamine (Gibco #11835) supplemented with 1 mM sodium pyruvate (Sigma #S8636) and penicillin (100 units/ml)/streptomycin (0.1 mg/ml) (Sigma #P4333) in 10% Fetal Bovine Serum (FBS) (Sigma #F0804). The cells were routinely passaged and grown to confluency (˜10^6 cells/ml). On the day of the experiment, THP-1 cells were harvested and resuspended into RPMI medium (without FBS). The cells were then counted and viability (>90%) checked by Trypan blue (Sigma #T8154). Appropriate dilutions were made to give a concentration of 625,000 cells/ml. To this diluted cell solution was added LPS (Sigma #L4524) to give a 1 μg/ml Final Assay Concentration (FAC). 40 μl of the final preparation was aliquoted into each well of a 96-well plate. The plate thus prepared was used for compound screening.
The following method step-by-step assay was followed for compound screening. • 1. Seed THP-1 cells (25,000 cells/well) containing 1.0 μg/ml LPS in 40 μl of RPMI medium (without FBS) in 96-well, black walled, clear bottom cell culture plates coated with poly-D-lysine (VWR #734-0317) • 2. Add […] compound (8 points half-log dilution, with 10 μM top dose) or vehicle (DMSO 0.1% FAC) to the appropriate wells • 3. Incubate for 3 hrs at 37° C. in 5% CO2 • 4. Add 5 μl nigericin (Sigma #N7143) (FAC 5 μM) to all wells • 5. Incubate for 1 hr at 37° C. and 5% CO2 • 6. At the end of the incubation period, spin plates at 300×g for 3 mins and remove supernatant • 7. Then add 50 μl of resazurin (Sigma #R7017) (FAC 100 μM resazurin in RPMI medium without FBS) and incubate plates for a further 1-2 hrs at 37° C. and 5% CO2 • 8. Plates were read in an Envision reader at Ex 560 nm and Em 590 nm • 9. IC50 data is fitted to a non-linear regression equation (log inhibitor vs response-variable slope 4-parameters)

In test [2] the target is T1, NLRP3. The test is described as follows: Human whole blood IL1β release assay. More on the design: Plate out 80 μl of whole blood containing 1 μg/ml of LPS; from tissue; host or cells: human whole blood from healthy donors, LPS-primed, nigericin-stimulated. It is filed as cell-based. The settings on record: 1 μg/ml LPS, nigericin 10 μM, IL-1β by AlphaLisa, read-out: HWB IC50. How it is done: For systemic delivery, the ability to inhibit NLRP3 when the compounds are present within the bloodstream is of great importance. For this reason, the NLRP3 inhibitory activity of a number of compounds in human whole blood was investigated in accordance with the following protocol.
Human whole blood in Li-heparin tubes was obtained from healthy donors from a volunteer donor panel. • 1. Plate out 80 μl of whole blood containing 1 μg/ml of LPS in 96-well, clear bottom cell culture plate (Corning #3585) • 2. Add 10 μl compound (8 points half-log dilution with 10 μM top dose) or vehicle (DMSO 0.1% FAC) to the appropriate wells • 3. Incubate for 3 hrs at 37° C., 5% CO2 • 4. Add 10 μl Nigericin (Sigma #N7143) (10 μM FAC) to all wells • 5. Incubate for 1 hr at 37° C., 5% CO2 • 6. At the end of the incubation period, spin plates at 300×g for 5 mins to pellet cells and remove 20 μl of supernatant and add to 96-well v-bottom plates for IL-1β analysis (note: these plates containing the supernatants can be stored at −80° C. to be analysed at a later date) • 7. IL-1β was measured according to the manufacturer protocol (Perkin Elmer-AlphaLisa IL-1 Kit AL220F-5000) • 8. IC50 data is fitted to anon-linear regression equation (log inhibitor vs response-variable slope 4-parameters)

T1 sequence (Q96P20 whole entry): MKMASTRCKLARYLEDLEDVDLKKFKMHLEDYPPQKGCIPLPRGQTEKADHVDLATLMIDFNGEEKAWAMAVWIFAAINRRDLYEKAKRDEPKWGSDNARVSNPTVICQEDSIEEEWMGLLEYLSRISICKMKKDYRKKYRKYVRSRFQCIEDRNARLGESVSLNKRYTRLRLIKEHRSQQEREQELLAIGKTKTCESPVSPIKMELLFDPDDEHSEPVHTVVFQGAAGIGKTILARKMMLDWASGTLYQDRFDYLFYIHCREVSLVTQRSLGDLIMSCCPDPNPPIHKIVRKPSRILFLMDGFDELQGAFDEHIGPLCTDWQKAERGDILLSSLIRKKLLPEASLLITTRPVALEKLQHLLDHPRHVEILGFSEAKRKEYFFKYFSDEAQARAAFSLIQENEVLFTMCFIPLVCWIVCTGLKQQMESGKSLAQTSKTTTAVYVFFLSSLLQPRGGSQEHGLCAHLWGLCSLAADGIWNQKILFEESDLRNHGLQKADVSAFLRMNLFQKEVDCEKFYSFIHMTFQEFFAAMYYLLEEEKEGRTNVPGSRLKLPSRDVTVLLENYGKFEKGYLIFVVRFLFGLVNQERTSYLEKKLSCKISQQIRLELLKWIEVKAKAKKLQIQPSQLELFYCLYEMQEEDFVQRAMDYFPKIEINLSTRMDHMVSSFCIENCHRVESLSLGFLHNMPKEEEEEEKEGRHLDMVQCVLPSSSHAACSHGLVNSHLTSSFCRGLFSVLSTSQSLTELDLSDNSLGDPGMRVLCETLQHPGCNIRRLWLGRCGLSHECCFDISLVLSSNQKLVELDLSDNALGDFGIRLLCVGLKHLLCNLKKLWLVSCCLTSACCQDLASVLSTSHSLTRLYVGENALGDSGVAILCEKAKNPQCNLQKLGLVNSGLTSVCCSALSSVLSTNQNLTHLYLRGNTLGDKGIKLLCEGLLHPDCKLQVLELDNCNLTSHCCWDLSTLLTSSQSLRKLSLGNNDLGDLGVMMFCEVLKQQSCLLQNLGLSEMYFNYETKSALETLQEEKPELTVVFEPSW

Turning to `CN(C)C(=O)Cn1ccc(S(=O)(=O)NC(=O)Nc2c3c(cc4c2CCC4)CCC3)n1` [Example 1, 2-(3-(N-((1,2,3,5,6,7-Hexahydro-s-indacen-4-yl)carbamoyl)sulfamoyl)-1H-pyrazol-1-yl)-N,N-dimethylacetamide], the IC50 at NLRP3 [1] was 160 to 640 nM; on NLRP3 [2], 3200 to 10000 nM.
On the same counts, the results for `CNC(=O)Cn1ccc(S(=O)(=O)NC(=O)Nc2c3c(cc4c2CCC4)CCC3)n1` [Example 2, 2-(3-(N-((1,2,3,5,6,7-Hexahydro-s-indacen-4-yl)carbamoyl)sulfamoyl)-1H-pyrazol-1-yl)-N-methylacetamide] are 160 to 640 nM and 1600 to 3200 nM.
In the case of `CN(C(=O)c1cc(S(=O)(=O)NC(=O)Nc2c3c(cc4c2CCC4)CCC3)nn1C)C1CCC1` [Example 7, N-Cyclobutyl-3-(N-((1,2,3,5,6,7-hexahydro-s-indacen-4-yl)carbamoyl)sulfamoyl)-N,1-dimethyl-1H-pyrazole-5-carboxamide], the IC50 lay in the range of 160 to 640 nM at NLRP3 [1] and 3200 to 10000 nM at NLRP3 [2].
For `Cn1nc(S(=O)(=O)NC(=O)Nc2c3c(cc4c2CCC4)CCC3)cc1C(=O)N(CCO)CCO` [Example 15, 3-(N-((1,2,3,5,6,7-Hexahydro-s-indacen-4-yl)carbamoyl)sulfamoyl)-N,N-bis(2-hydroxyethyl)-1-methyl-1H-pyrazole-5-carboxamide] the same measures were 160 to 640 nM and under 400 nM.
For `CN(CCCO)C(=O)c1cc(S(=O)(=O)NC(=O)Nc2c3c(cc4c2CCC4)CCC3)nn1C` [Example 18, 3-(N-((1,2,3,5,6,7-Hexahydro-s-indacen-4-yl)carbamoyl)sulfamoyl)-N-(3-hydroxypropyl)-N,1-dimethyl-1H-pyrazole-5-carboxamide] the same measures were 160 to 640 nM and 1600 to 3200 nM.
For `CCN(CCO)C(=O)c1cc(S(=O)(=O)NC(=O)Nc2c3c(cc4c2CCC4)CCC3)nn1C` [Example 20, N-Ethyl-3-(N-((1,2,3,5,6,7-hexahydro-s-indacen-4-yl)carbamoyl)sulfamoyl)-N-(2-hydroxyethyl)-1-methyl-1H-pyrazole-5-carboxamide] the same measures were 160 to 640 nM and 800 to 1600 nM.
On to `COCCN(CCOC)C(=O)c1cc(S(=O)(=O)NC(=O)Nc2c3c(cc4c2CCC4)CCC3)nn1C` [Example 26, 3-(N-((1,2,3,5,6,7-Hexahydro-s-indacen-4-yl)carbamoyl)sulfamoyl)-N,N-bis(2-methoxyethyl)-1-methyl-1H-pyrazole-5-carboxamide], for which the IC50 against NLRP3 [1] was 40 to 160 nM; at NLRP3 [2] it was 400 to 800 nM.
Take `CC(C)c1cc(F)cc(C2CCOCC2)c1NC(=O)NS(=O)(=O)c1cc(C(=O)N(C)C)n(C)n1` [Example 33, 3-(N-((4-Fluoro-2-isopropyl-6-(tetrahydro-2H-pyran-4-yl)phenyl)carbamoyl)sulfamoyl)-N,N,1-trimethyl-1H-pyrazole-5-carboxamide]: the IC50 at NLRP3 [2] is 400 to 800 nM.
Still for that read-out and setting: under `CC(C)c1cc(F)cc(-c2cccnc2)c1NC(=O)NS(=O)(=O)c1cc(C(=O)N(C)C)n(C)n1` [Example 41, 3-(N-((4-Fluoro-2-isopropyl-6-(pyridin-3-yl)phenyl)carbamoyl)sulfamoyl)-N,N,1-trimethyl-1H-pyrazole-5-carboxamide] stands under 400 nM.
`CC(C)NC(=O)c1cc(S(=O)(=O)NC(=O)Nc2c3c(cc4c2CCC4)CCC3)nn1C` [Example 46, 3-(N-((1,2,3,5,6,7-Hexahydro-s-indacen-4-yl)carbamoyl)sulfamoyl)-N-isopropyl-1-methyl-1H-pyrazole-5-carboxamide] returned an IC50 on NLRP3 [1] of 2560 to 10000 nM.
With `CCN(CC)C(=O)c1cc(S(=O)(=O)NC(=O)Nc2c(C(C)C)cc(F)cc2C(C)C)nn1C` [Example 48, N,N-Diethyl-3-(N-((4-fluoro-2,6-diisopropylphenyl)carbamoyl)sulfamoyl)-1-methyl-1H-pyrazole-5-carboxamide], at NLRP3 [1], the half-maximal inhibitory concentration (IC50) lay in the range of 160 to 640 nM.
Still for that read-out and setting: the value for `CCN(CC)C(=O)c1cc(S(=O)(=O)NC(=O)Nc2c(C(C)C)cccc2C(C)C)nn1C` [Example 57, 3-(N-((2,6-Diisopropylphenyl)carbamoyl)sulfamoyl)-N,N-diethyl-1-methyl-1H-pyrazole-5-carboxamide] was 640 to 2560 nM.
The same measure, in the same setting: the value for `Cn1nc(S(=O)(=O)NC(=O)Nc2c3c(cc4c2CCC4)CCC3)cc1C(=O)N1CCCC1` [Example 59, N-((1,2,3,5,6,7-Hexahydro-s-indacen-4-yl)carbamoyl)-1-methyl-5-(pyrrolidine-1-carbonyl)-1H-pyrazole-3-sulfonamide] was 640 to 2560 nM; that for `Cn1nc(S(=O)(=O)NC(=O)Nc2c3c(cc4c2CCC4)CCC3)cc1C(=O)N1CC(F)C1` [Example 61, 5-(3-Fluoroazetidine-1-carbonyl)-N-((1,2,3,5,6,7-hexahydro-s-indacen-4-yl)carbamoyl)-1-methyl-1H-pyrazole-3-sulfonamide] was 640 to 2560 nM.
Still for that read-out and setting: the value for `CC(C)c1cccc(C(C)C)c1NC(=O)NS(=O)(=O)c1cc(C(=O)N2CCCC2)n(C)n1` [Example 63, N-((2,6-Diisopropylphenyl)carbamoyl)-1-methyl-5-(pyrrolidine-1-carbonyl)-1H-pyrazole-3-sulfonamide] was 640 to 2560 nM; that for `CNC(=O)c1cc(S(=O)(=O)NC(=O)Nc2c3c(cc4c2CCC4)CCC3)nn1C` [Example 66, 3-(N-((1,2,3,5,6,7-Hexahydro-s-indacen-4-yl)carbamoyl)sulfamoyl)-N,1-dimethyl-1H-pyrazole-5-carboxamide] was 640 to 2560 nM; that for `CC(C)c1cccc(C(C)C)c1NC(=O)NS(=O)(=O)c1cc(C(=O)N(C)CCO)n(C)n1` [Example 75, 3-(N-((2,6-Diisopropylphenyl)carbamoyl)sulfamoyl)-N-(2-hydroxyethyl)-N,1-dimethyl-1H-pyrazole-5-carboxamide] was 640 to 2560 nM.
On to `Cn1nc(S(=O)(=O)NC(=O)Nc2c3c(cc4c2CCC4)CCC3)cc1C(=O)NCCO` [Example 76, 3-(N-((1,2,3,5,6,7-Hexahydro-s-indacen-4-yl)carbamoyl)sulfamoyl)-N-(2-hydroxyethyl)-1-methyl-1H-pyrazole-5-carboxamide], for which, on NLRP3 [1], the IC50 was in the range of 2560 to 10000 nM.
On the same count and under the same terms, the value for `COCCNC(=O)c1cc(S(=O)(=O)NC(=O)Nc2c3c(cc4c2CCC4)CCC3)nn1C` [Example 77, 3-(N-((1,2,3,5,6,7-Hexahydro-s-indacen-4-yl)carbamoyl)sulfamoyl)-N-(2-methoxyethyl)-1-methyl-1H-pyrazole-5-carboxamide] was 2560 to 10000 nM.
